Series [1] deals with cell (Vero, T24 or A549 of Example 9; not given). Description: Nucleic acid-introducing ability, luciferase-expressing plasmid (procedure of Example 9). The format is cell-based. The settings on record: for Nucleic acid-introducing ability: class of fluorescent count per 1 mg of protein per 1 second, highest of peptide 1.25, 2.5, 5 μM, plasmid 1 μg/mL; for ability of introducing the nucleic acid into a cell: procedure of Example 9, luciferase-expressing plasmid. From the text:
A cell line established from monkey kidney (Vero cell) and a human bladder cancer cell (T24 cell) purchased from American Type Culture Collection (ATCC) and human lung cancer cell (A549 cell) purchased from Dainippon Pharmaceutical were inoculated on a 24 well culture plate (manufactured by NALGEN NUNC) at 1×10^5 cells/well. Vero cell and A549 cell were cultivated in DMEM (manufactured by Life Technologies Oriental) supplemented with 10% fetal bovine serum (hereinafter referred to as FBS, manufactured by NICHIREI), and T24 cell was cultivated in McCoy's 5a (manufactured by Life Technologies Oriental) supplemented with 10% FBS in 5% CO2 atmosphere at 37° C. for 24 hours. After removing the medium, opti-MEM (manufactured by Life Technologies Oriental) prepared to have the concentration of the luciferase-expressing plasmid prepared in Example 7 of 1 μg/mL and the concentration of the peptide prepared in Example 1 of 1.25, 2.5, or 5 μM was added, and the cells were cultivated for 5 hours. Next, in the case of Vero cell and A549 cell, the culture medium was replaced with DMEM supplemented with 10% FBS, and in the case of T24 cell, the medium was replaced with McCoy's 5a supplemented with 10% FBS, and cultivation was continued in 5% CO2 atmosphere and at 37° C. for another 24 hours. The luciferase activity expressed in the cell was then measured by the method instructed in luciferase assay system (manufactured by Promega). To be more specific, the cells were washed with phosphate-buffered saline (hereinafter referred to as PBS, manufactured by SIGMA), and the cells were lyzed with Passive Lysis Buffer attached to the kit. 20 μL of this cell lysate and 100 μL of the Luciferase Assay Reagent II attached to the kit was added to a fluorescence-measuring plate (Microlite™ 1 plate, manufactured by Dynatech), and after mixing, fluorescence was measured for 1 second by using a multilabel counter (ARVO™ SY1420 MULTILABEL COUNTER, manufactured by Wallac Beltold.
Concentration of the protein in the cell lysate was measured by mixing 8 μL of the cell lysate and 200 μL of the protein assay solution (manufactured by Biorad) with 792 μL of ultrapure water in a disposable cuvette (UV fluorescent cuvette A204X, manufactured by Funakoshi), allowing the mixture to stand for 5 minutes at room temperature, and measuring the absorption at 595 nm with a spectrophotometer (DU640, manufactured by Beckman). Bovine serum albumin (BSA) was used for the standard protein. By using the thus obtained results, count per 1 second per 1 mg of protein of the cell lysate was calculated to thereby use the count as the luciferase activity, and the highest count in the three conditions of different peptide concentration was designated the gene-introducing ability of the peptide.
It is to be noted that the nucleic acid-introducing ability was classified as described below on the bases of the fluorescent count per 1 mg of protein per 1 second (cps/mg protein).

Series [2] can be described thus: Measurement of turbidity in BSA. The series is classed as physicochemical. The settings on record: BSA 1%, peptide 50 μM, absorbance at 600 nm. Here is the method: The solutions were evaluated for their absorbance at a wavelength of 600 nm by using a spectrophotometer (DU640, manufactured by Beckman).
Series [3] is described as follows: Affinity for phosphatidyl serine (EIA, inhibition of human Factor VIII binding). Conditions: for IC50: class of IC50 for inhibiting human Factor VIII binding, 5% BSA. Here is the method: The specific affinity of the peptide for phosphatidyl serine was evaluated by measuring activity of the peptide for inhibiting the binding of the human Factor VIII to phosphatidyl serine by using human Factor VIII which is known to bind to phosphatidyl serine but not to phosphatidyl choline in the presence of serum albumin. To be more specific, 100 μL of ethanol solution containing 10 μg/mL of phospholipids at a phosphatidyl serine (manufactured by SIGMA): phosphatidyl choline (manufactured by SIGMA) ratio of 3:7 was added to the wells of a 96 well plate (Immulon I, manufactured by Dynatech), and exsiccated by using a centrifugal evaporator (EC-95C, manufactured by Sakuma Seisakusho) at 40° C. for 40 minutes. 200 μL each of TBS (10 mM Tris-HCl (pH 7.4) containing 1% bovine serum albumin (BSA Fraction V, hereinafter referred to as BSA, manufactured by Seikagaku Corporation) and 0.9% (W/V) NaCl solution were added to each well, and the wells were blocked by allowing the plate to stand at 37° C. for 2.5 hours. After washing the plate with water, 100 μL of TBS solution supplemented with 5% BSA mixed with human Factor VIII (manufactured by American Diagnostica) at a final concentration 1 μg/mL and the peptide of predetermined dose prepared in Example 1 was added to each well, and the reaction was allowed to take place at 4° C. for 24 hours.
After the completion of the reaction, the human Factor VIII that became bound to the phosphatidyl serine was measured by enzyme immunoassay (EIA) in accordance with the general procedure described in a book (“Enzyme Immunoassay (3rd ed.)”, Eiji Ishikawa et al., Igaku-Shoin, 1987). To be more specific, the measurement was conducted by using anti-human Factor VIII mouse monoclonal antibody (ESH8, manufactured by American Diagnostica) for the primary antibody, horseradish peroxidase-labeled anti-mouse IgG antibody (P0260, manufactured by Daco) for the secondary antibody, and tetramethylbenzidine for the chromogenic substrate, and measuring the absorption at a wavelength of 450 nm by using a reference wavelength of 630 nm on a spectrophotometer (NJ-2100, manufactured by Intermed).
Intensity of the affinity of the peptide for the phosphatidyl serine was evaluated by using the value obtained by subtracting the absorption of the well having no human Factor VIII added thereto from the absorption of the well having only the human Factor VIII added thereto as the control value (100%), and designating the peptide concentration at which the value 0.5 was obtained when the value obtained by subtracting the absorption of the well having only the peptide added thereto from the absorption of the well having a mixture of the human Factor VIII and the peptide added thereto were divided by the control value as the IC50 value, and evaluating the intensity to be ++ when the IC50 value was up to 1 μM, and +when the intensity was more than 1 μM but not more than 10 μM. It is to be noted that the specific affinity was evaluated to be none when the intensity was 10 μM or more.

Some results are limits rather than exact numbers.

On to “SEQ ID NO: 13: peptide of SEQ ID NO:1 with one or two locations substituted in the 18 amino acid sequence (TRYLRIHPRSLVHQIALRLRYLRIHPRSLVHQIALRS; synthetic peptide using an automatic peptide synthesizer)”, for which, in series [1], the Nucleic acid-introducing ability is listed as 3+ (1,000,000 to less than 10,000,000).
Regarding “SEQ ID NO: 2: peptide of SEQ ID NO:1 with one or two locations substituted in the 18 amino acid sequence (TRYLRIHPRSWVRQIALRLRYLRIHPRSWVRQIALRS; synthetic peptide using an automatic peptide synthesizer)”, in series [2], the “OD 600” value is listed as 0.01>. In addition, the Nucleic acid-introducing ability in series [1] is listed as 3+ (1,000,000 to less than 10,000,000). In series [3], the IC50 was less than 1 µM.
As for “SEQ ID NO: 20: peptide of SEQ ID NO:1 with three locations substituted in the 18 amino acid sequence (TRYLRLHPRSWVHQLALRTRYLRLHPRSWVHQLALRS; synthetic peptide using an automatic peptide synthesizer)”, the Nucleic acid-introducing ability in series [1] was 4+ (10,000,000 or more).
“SEQ ID NO: 15: peptide of SEQ ID NO:1 with one or two locations substituted in the 18 amino acid sequence (TRYLRIRPRSWVRQIALRLRYLRIRPRSWVRQIALRS; synthetic peptide using an automatic peptide synthesizer)”: the “OD 600” value in series [2] was 0.01>. Also, the Nucleic acid-introducing ability in series [1] was 2+ (100,000 to less than 1,000,000). In series [3], this substance had an IC50 of less than 1 µM.
In the same order, the values of “SEQ ID NO: 6: peptide of SEQ ID NO:1 with one or two locations substituted in the 18 amino acid sequence (TRYLRIHPRSWVHNIALRLRYLRIHPRSWVHNIALRS; synthetic peptide using an automatic peptide synthesizer)” are 0.01>, 2+ (100,000 to less than 1,000,000) and less than 1 µM.
For the substance “SEQ ID NO: 18: peptide of SEQ ID NO:1 with one or two locations substituted in the 18 amino acid sequence (TRYLRIHPRSWLHQIALRTRYLRIHPRSWLHQIALRS; synthetic peptide using an automatic peptide synthesizer)”, the Nucleic acid-introducing ability in series [1] is reported as 4+ (10,000,000 or more).
As to “SEQ ID NO: 17: peptide of SEQ ID NO:1 with one or two locations substituted in the 18 amino acid sequence (TRSLRIHPRLWVHQIALRLRSLRIHPRLWVHQIALRS; synthetic peptide using an automatic peptide synthesizer)”, in series [2], the “OD 600” value is reported as 0.01>. In addition, the Nucleic acid-introducing ability in series [1] is given as 2+ (100,000 to less than 1,000,000). Further, the half-maximal inhibitory concentration (IC50) in series [3] was less than 1 µM.
Take “SEQ ID NO: 22: peptide of SEQ ID NO:1 with three locations substituted in the 18 amino acid sequence (TRRLRIHPRRWVHRIALRLRRLRIHPRRWVHRIALRS; synthetic peptide using an automatic peptide synthesizer)”: in series [1], the Nucleic acid-introducing ability is 3+ (1,000,000 to less than 10,000,000).
Consider “SEQ ID NO: 12: peptide of SEQ ID NO:1 with one or two locations substituted in the 18 amino acid sequence (TRYLRIHPRSWVHQIALSLRYLRIHPRSWVHQIALSS; synthetic peptide using an automatic peptide synthesizer)”, for which the Nucleic acid-introducing ability in series [1] is reported as 2+ (100,000 to less than 1,000,000).
In the case of “SEQ ID NO: 24: deletion mutant of the peptide of SEQ ID NO:4 (TLRYLRIHPRSWLHQIALRS; synthetic peptide using an automatic peptide synthesizer)”, in series [1], the Nucleic acid-introducing ability is on record as 1+ (10,000 to less than 100,000) and the “ability of introducing the nucleic acid into a cell” value is given as “had the ability of introducing the nucleic acid into a cell”.
Consider “SEQ ID NO: 21: peptide of SEQ ID NO:1 with three locations substituted in the 18 amino acid sequence (TKYLKIHPKSWVHQIALRLKYLKIHPKSWVHQIALRS; synthetic peptide using an automatic peptide synthesizer)”, for which the Nucleic acid-introducing ability in series [1] is 2+ (100,000 to less than 1,000,000).
Consider “SEQ ID NO:26: comparative peptide, SEQ ID NO:1 substituted so that it lacks the four sided 18 amino acid sequence (TRYLRIHPRSWVLQIALRLRYLRIHPRSWVLQIALRS; synthetic peptide using an automatic peptide synthesizer) [reference compound]”, for which the fluorescent count result in series [1] (procedure of Example 9) is “less than 10,000 cps/mg protein”. Further, the “ability of introducing the nucleic acid into a cell” value in series [1] is “no nucleic acid-introducing ability was found”.
As for “SEQ ID NO: 14: peptide of SEQ ID NO:1 with one or two locations substituted in the 18 amino acid sequence (TRYLRIHPRSWSHQIALRLRYLRIHPRSWSHQIALRS; synthetic peptide using an automatic peptide synthesizer)”, in series [1], the Nucleic acid-introducing ability is on record as 3+ (1,000,000 to less than 10,000,000).
Consider Polylysine [reference compound], for which, in series [2], the “OD 600” value is reported as no less than 1. Also, the “affinity for phosphatidyl serine” value in series [3] (procedure of Example 20) is reported as “no affinity for phosphatidyl serine”.
For “SEQ ID NO: 9: peptide of SEQ ID NO:1 with one or two locations substituted in the 18 amino acid sequence (TRYLRIHPRSWVHQIALRTRYLRIHPRSWVHQIALRS; synthetic peptide using an automatic peptide synthesizer)”, the Nucleic acid-introducing ability in series [1] is on record as 3+ (1,000,000 to less than 10,000,000).

(Values after patent US20040171795A1, “Novel peptides” (priority 2000, published 2004).)
